In patent US20130209551A1, “PENTAPEPTIDE DERIVATIVES FOR PROMOTING HAIR GROWTH” (priority 2010, published 2013):
*: point of attachment. Biotin = O=C1N[C@H]2[C@H](CS[C@H]2CCCCC(=O)*)N1

Test system: hair bulb keratinocytes
Experiment: Detection of the hair bulb keratinocyte proliferation (test of Biol. Pharm. Bull., 28(3), 485-489, (2005))
Format: cell-based
Conditions: relative to unsubstituted pentapeptide Gly-Pro-Ile-Gly-Ser
From the text: In the test as described in Biol. Pharm.

Substance: 5-[(3aS,4S,6aR)-2-oxo-hexahydro-1H-thieno[3,4-d]imidazol-4-yl]pentanoyl-Gly-Pro-Ile-Gly-Ser-OH (Biotin-GPIGS-OH; SMILES CC[C@H](C)[C@H](NC(=O)[C@@H]1CCCN1C(=O)CNC(=O)CCCC[C@@H]1SC[C@@H]2NC(=O)N[C@@H]21)C(=O)NCC(=O)N[C@@H](CO)C(=O)O) [No. 9]
- keratinocyte growth test result, value superior in comparison with the corresponding value for Gly-Pro-Ile-Gly-Ser: 53%
